The supplement of paper PMC10307832

Assays:
Experiment in all cases: relative viability (nuclei count vs DMSO), 5 days (fraction); higher = more cells survive
FH535 + AZD7762 = compound: CC1=C(C=CC(=C1)[N+](=O)[O-])NS(=O)(=O)C2=C(C=CC(=C2)Cl)Cl [FH535] + NC(=O)Nc1cc(-c2cccc(F)c2)sc1C(=O)N[C@H]1CCCNC1 [AZD7762] (partner 0.2 µM)
Procedure, shortened: (§1)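 Lung cancer cell lines were seeded in 1536-well plates and dosed by pin tool the next day, with either a single drug or a fixed anchor-drug dose combined with five library-drug doses (not always all listed) spaced in √10 steps. Five days later, one step fixed the cells and stained their nuclei (final 0.05% Triton X-100, 1% formaldehyde, 1 ug/ml Hoechst), and nuclei were counted on 4× images. Relative viability is the nuclei count in treated wells divided by the count in vehicle wells, and each value is the median of duplicate plates.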

FH535 + Decitabine = compound: CC1=C(C=CC(=C1)[N+](=O)[O-])NS(=O)(=O)C2=C(C=CC(=C2)Cl)Cl [FH535] + Nc1ncn([C@H]2C[C@H](O)[C@@H](CO)O2)c(=O)n1 [Decitabine] (partner 2 µM)
Procedure, shortened: as §1

FH535 + Linsitinib = compound: CC1=C(C=CC(=C1)[N+](=O)[O-])NS(=O)(=O)C2=C(C=CC(=C2)Cl)Cl [FH535] + C[C@]1(O)C[C@@H](c2nc(-c3ccc4ccc(-c5ccccc5)nc4c3)c3c(N)nccn32)C1 [Linsitinib] (partner 1 µM)
Procedure, shortened: as §1

FH535 + Phenformin = compound: CC1=C(C=CC(=C1)[N+](=O)[O-])NS(=O)(=O)C2=C(C=CC(=C2)Cl)Cl [FH535] + N=C(N)NC(=N)NCCc1ccccc1 [Phenformin] (partner 250 µM)
Procedure, shortened: as §1

FH535 + Bortezomib = compound: CC1=C(C=CC(=C1)[N+](=O)[O-])NS(=O)(=O)C2=C(C=CC(=C2)Cl)Cl [FH535] + CC(C)C[C@H](NC(=O)[C@H](Cc1ccccc1)NC(=O)c1cnccn1)B(O)O [Bortezomib] (partner 0.002 µM)
Procedure, shortened: as §1

Cell Line	relative viability (FH535 + AZD7762; first compound 0.04 µM)	relative viability (FH535 + AZD7762; first compound 0.1265 µM)	relative viability (FH535 + AZD7762; first compound 0.4 µM)	relative viability (FH535 + AZD7762; first compound 1.265 µM)	relative viability (FH535 + Decitabine; first compound 0.04 µM)	relative viability (FH535 + Decitabine; first compound 0.1265 µM)	relative viability (FH535 + Decitabine; first compound 0.4 µM)	relative viability (FH535 + Decitabine; first compound 1.265 µM)	relative viability (FH535 + Linsitinib; first compound 0.04 µM)	relative viability (FH535 + Linsitinib; first compound 0.1265 µM)	relative viability (FH535 + Linsitinib; first compound 0.4 µM)	relative viability (FH535 + Linsitinib; first compound 1.265 µM)	relative viability (FH535 + Phenformin; first compound 0.04 µM)	relative viability (FH535 + Phenformin; first compound 0.1265 µM)	relative viability (FH535 + Phenformin; first compound 0.4 µM)	relative viability (FH535 + Phenformin; first compound 1.265 µM)	relative viability (FH535 + Bortezomib; first compound 0.04 µM)	relative viability (FH535 + Bortezomib; first compound 0.1265 µM)	relative viability (FH535 + Bortezomib; first compound 0.4 µM)	relative viability (FH535 + Bortezomib; first compound 1.265 µM)
NCI-H1355	0.688	0.843	0.727	0.76	0.334	0.325	0.368	0.36	0.745	0.822	0.78	0.633	0.425	0.42	0.353	0.269	1.09	1.2	1.15	1.03
NCI-H1437	1.11	1.13	1.01	0.502	0.526	0.554	0.488	0.344	1.02	0.962	0.879	0.421	0.289	0.309	0.29	0.171	0.427	0.624	0.303	0.286
NCI-H1651	0.368	0.511	0.502	0.466	0.562	0.602	0.622	0.447	0.999	0.949	0.942	0.731	0.318	0.319	0.221	0.188	0.876	0.911	0.889	0.779
NCI-H1666	0.727	0.899	0.772	0.747	0.718	0.686	0.733	0.626	0.88	0.78	0.753	0.55	0.582	0.513	0.476	0.373	0.725	0.882	0.705	0.625
NCI-H1734	0.562	0.603	0.563	0.554	0.501	0.501	0.56	0.471	0.838	0.939	0.876	0.866	–	0.394	0.373	0.269	0.775	0.894	0.771	0.828
NCI-H1755	0.418	0.439	0.475	0.444	0.667	0.725	0.679	0.699	0.968	0.996	0.912	0.919	0.539	0.627	0.558	0.494	0.982	0.951	0.793	0.817
NCI-H1792	0.646	0.79	0.539	0.577	0.564	0.523	0.506	0.457	0.54	0.601	0.527	0.396	0.216	0.358	0.267	0.235	0.971	0.932	0.835	0.688
NCI-H1915	0.604	0.77	0.713	0.669	0.243	0.252	0.263	0.265	1.08	1.12	1.08	0.896	0.339	0.385	0.309	0.292	0.955	0.855	0.986	0.904
NCI-H1975	0.638	0.793	0.591	0.554	0.375	0.383	0.351	0.365	0.95	0.986	0.925	0.784	0.384	0.402	0.35	0.256	0.312	0.381	0.374	0.338
NCI-H1993	0.927	0.704	0.626	0.532	0.563	1.13	0.357	0.613	0.703	0.734	0.673	0.745	0.415	0.495	0.533	0.524	1.01	0.927	0.895	0.811
NCI-H2085	1.03	1.06	0.783	0.828	0.542	0.512	0.572	0.431	0.858	0.924	0.892	0.724	0.687	0.65	0.585	0.451	1.14	0.917	0.977	0.819
NCI-H2087	1.24	1.21	1.17	0.78	0.26	0.225	0.194	0.18	0.98	0.994	0.87	0.512	0.425	0.398	0.286	0.155	0.7	0.57	0.719	0.528
NCI-H2126	0.973	1.05	0.857	0.874	0.59	0.582	0.574	0.415	0.746	0.719	0.705	0.619	0.525	0.53	0.457	0.348	1.07	1.1	0.986	0.879
NCI-H2347	0.696	0.819	0.764	0.761	0.594	0.678	0.614	0.572	1.02	1.05	0.902	0.812	0.409	0.332	0.425	0.27	0.843	1	1.02	0.627
NCI-H2405	0.665	0.794	0.641	0.5	0.688	0.75	0.689	0.571	0.848	1.01	0.953	0.76	0.395	0.378	0.344	0.331	0.987	0.916	0.906	0.509
